From ChEMBL document CHEMBL1149339, “Vasorelaxant activity of cyclic peptide, cyclosquamosin B, from Annona squamosa” (Bioorg Med Chem Lett, 2006)
The source made the active and inactive calls.

How the values were obtained:
Type in all cases: functional, organism-based
Rattus norvegicus [1] = organism: Rattus norvegicus; experiment: Inhibition of potassium ion depolarized calcium-induced contraction of rat aorta mediated by voltage dependent calcium channel at 10 uM
Rattus norvegicus [2] = organism: Rattus norvegicus; experiment: Vasorelaxant activity against norepinephrine-induced contraction of rat thoracic aortic ring without endothelium; details: Aorta
Rattus norvegicus [3] = organism: Rattus norvegicus; experiment: Vasorelaxant activity against norepinephrine-induced contraction of rat thoracic aortic ring with endothelium; details: Aorta
Rattus norvegicus [4] = organism: Rattus norvegicus; experiment: Inhibition of norepinephrine-induced contraction in rat aorta mediated by receptor operated calcium channel in presence of nicardipine at 10 uM

Measured: Activity

CC[C@@H](C)[C@@H]1NC(=O)[C@@H]2CCCN2C(=O)[C@@H]2CCCN2C(=O)[C@H](CCC(N)=O)NC(=O)[C@H](CCSC)NC(=O)[C@H](CC(C)C)NC(=O)CN(C)C(=O)[C@H]([C@H](C)O)NC1=O
active: Rattus norvegicus [1] | Rattus norvegicus [2] | Rattus norvegicus [3] | Rattus norvegicus [4]
